Measurements published in ChEMBL document CHEMBL1201861, “Genomics of Drug Sensitity in Cancer screening data, Wellcome Trust Sanger Institute”.

How the values were obtained:
Experiment in all cases: cells
COR-L88 = format: functional, cell-based; conditions: Homo sapiens;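 note: growth inhibition of COR-L88 cells, read out with a cell viability assay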
Description: SANGER: Inhibition of human COR-L88 cell growth in a cell viability assay.

DU-145 = format: functional, cell-based, Homo sapiens; conditions: Homo sapiens, DU-145
Description: SANGER: Inhibition of human DU-145 cell growth in a cell viability assay.

G-402 = format: functional, cell-based, Homo sapiens; conditions: Homo sapiens, G-402
Description: SANGER: Inhibition of human G-402 cell growth in a cell viability assay.

GAMG = format: functional, cell-based, Homo sapiens; conditions: Homo sapiens, GAMG;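 note: cell growth inhibition measured by a viability assay in the GAMG human cell line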
Description: SANGER: Inhibition of human GAMG cell growth in a cell viability assay.

HCC1395 = format: functional, cell-based, Homo sapiens; conditions: Homo sapiens, HCC1395;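 note: growth inhibition of HCC1395 cells, read out by a cell viability assay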
Description: SANGER: Inhibition of human HCC1395 cell growth in a cell viability assay.

HCC2218 = format: functional, cell-based; conditions: Homo sapiens;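 note: cell viability assay read-out, with IC50 given as the concentration that inhibits growth of the cell line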
Description: SANGER: Inhibition of human HCC2218 cell growth in a cell viability assay.

HCE-T = format: functional, cell-based, Homo sapiens; conditions: Homo sapiens, HCE-T;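 note: cell viability assay read-out, reporting inhibition of HCE-T cell growth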
Description: SANGER: Inhibition of human HCE-T cell growth in a cell viability assay.

HD-MY-Z = format: functional, cell-based, Homo sapiens; conditions: Homo sapiens, HD-MY-Z;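 note: growth inhibition of HD-MY-Z cells, read out with a cell viability assay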
Description: SANGER: Inhibition of human HD-MY-Z cell growth in a cell viability assay.

HDLM-2 = format: functional, cell-based; conditions: Homo sapiens;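 note: cell viability assay measuring suppression of HDLM-2 proliferation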
Description: SANGER: Inhibition of human HDLM-2 cell growth in a cell viability assay.

HEL = format: functional, cell-based, Homo sapiens; conditions: Homo sapiens, HEL;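 note: growth inhibition of HEL cells, read out with a cell viability assay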
Description: SANGER: Inhibition of human HEL cell growth in a cell viability assay.

HSC-2 = format: functional, cell-based, Homo sapiens; conditions: Homo sapiens, HSC-2;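 note: growth inhibition of human HSC-2 cells, read out by a cell viability assay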
Description: SANGER: Inhibition of human HSC-2 cell growth in a cell viability assay.

HT-1080 = format: functional, cell-based, Homo sapiens; conditions: Homo sapiens, HT-1080
Description: SANGER: Inhibition of human HT-1080 cell growth in a cell viability assay.

IA-LM = format: functional, cell-based, Homo sapiens; conditions: Homo sapiens, IA-LM;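 note: cell viability assay measuring growth inhibition of human IA-LM cells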
Description: SANGER: Inhibition of human IA-LM cell growth in a cell viability assay.

K5 = format: functional, cell-based, Homo sapiens; conditions: Homo sapiens, K5
Description: SANGER: Inhibition of human K5 cell growth in a cell viability assay.

LS-1034 = format: functional, cell-based, Homo sapiens; conditions: Homo sapiens, LS-1034
Description: SANGER: Inhibition of human LS-1034 cell growth in a cell viability assay.

MDA-MB-175-VII = format: functional, cell-based, Homo sapiens; conditions: Homo sapiens, MDA-MB-175-VII
MOLT-16 = format: functional, cell-based; conditions: Homo sapiens;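 note: growth inhibition of human MOLT-16 cells, read out with a cell viability assay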
Description: SANGER: Inhibition of human MOLT-16 cell growth in a cell viability assay.

MOLT-4 = format: functional, cell-based; conditions: Homo sapiens;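 note: growth inhibition of MOLT-4 cells, determined with a cell viability readout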
Description: SANGER: Inhibition of human MOLT-4 cell growth in a cell viability assay.

Mo = format: functional, cell-based; conditions: Homo sapiens
Description: SANGER: Inhibition of human Mo-T cell growth in a cell viability assay.

NCI-H1155 = format: functional, cell-based; conditions: Homo sapiens;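 note: cell growth inhibition measured by a viability assay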
Description: SANGER: Inhibition of human NCI-H1155 cell growth in a cell viability assay.

NCI-H1563 = format: functional, cell-based, Homo sapiens; conditions: Homo sapiens, NCI-H1563;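 note: growth inhibition of human NCI-H1563 cells, read out with a cell viability assay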
Description: SANGER: Inhibition of human NCI-H1563 cell growth in a cell viability assay.

NCI-H1755 = format: functional, cell-based, Homo sapiens; conditions: Homo sapiens, NCI-H1755;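 note: cell viability readout used to measure growth inhibition of NCI-H1755 cells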
Description: SANGER: Inhibition of human NCI-H1755 cell growth in a cell viability assay.

NCI-H28 = format: functional, cell-based, Homo sapiens; conditions: Homo sapiens, NCI-H28;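 note: growth inhibition of human NCI-H28 cells, read out as cell viability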
Description: SANGER: Inhibition of human NCI-H28 cell growth in a cell viability assay.

NCI-H720 = format: functional, cell-based; conditions: Homo sapiens;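 note: growth inhibition of human NCI-H720 cells determined by a cell viability assay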
Description: SANGER: Inhibition of human NCI-H720 cell growth in a cell viability assay.

OVCAR-5 = format: functional, cell-based, Homo sapiens; conditions: Homo sapiens, OVCAR-5;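 note: growth inhibition of human OVCAR-5 cells, read out with a cell viability assay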
Description: SANGER: Inhibition of human OVCAR-5 cell growth in a cell viability assay.

PA-1 = format: functional, cell-based, Homo sapiens; conditions: Homo sapiens, PA-1;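 note: IC50 for suppression of PA-1 cell proliferation, determined with a cell viability read-out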
Description: SANGER: Inhibition of human PA-1 cell growth in a cell viability assay.

PC-3 = format: functional, cell-based, Homo sapiens; conditions: Homo sapiens, PC-3;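 note: cell viability assay measuring growth inhibition of PC-3 cells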
Description: SANGER: Inhibition of human PC-3 cell growth in a cell viability assay.

RERF-LC-MS = format: functional, cell-based, Homo sapiens; conditions: Homo sapiens, RERF-LC-MS;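 note: growth inhibition of human RERF-LC-MS cells, read out by a cell viability assay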
Description: SANGER: Inhibition of human RERF-LC-MS cell growth in a cell viability assay.

RPMI-2650 = format: functional, cell-based, Homo sapiens; conditions: Homo sapiens, RPMI-2650
Description: SANGER: Inhibition of human RPMI-2650 cell growth in a cell viability assay.

RPMI-7951 = format: functional, cell-based, Homo sapiens; conditions: Homo sapiens, RPMI-7951
Description: SANGER: Inhibition of human RPMI-7951 cell growth in a cell viability assay.

RPMI-8226 = format: functional, cell-based; conditions: Homo sapiens
Description: SANGER: Inhibition of human RPMI-8226 cell growth in a cell viability assay.

RVH-421 = format: functional, cell-based, Homo sapiens; conditions: Homo sapiens, RVH-421
Description: SANGER: Inhibition of human RVH-421 cell growth in a cell viability assay.

SBC-5 = format: functional, cell-based, Homo sapiens; conditions: Homo sapiens, SBC-5;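 note: cell viability assay read-out, IC50 is the concentration that inhibits growth of the cells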
Description: SANGER: Inhibition of human SBC-5 cell growth in a cell viability assay.

SCC-4 = format: functional, cell-based, Homo sapiens; conditions: Homo sapiens, SCC-4;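 note: growth inhibition of human SCC-4 cells, read out as cell viability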
Description: SANGER: Inhibition of human SCC-4 cell growth in a cell viability assay.

SCC-9 = format: functional, cell-based, Homo sapiens; conditions: Homo sapiens, SCC-9;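 note: Read-out is a cell viability assay, with values giving inhibition of cell growth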
Description: SANGER: Inhibition of human SCC-9 cell growth in a cell viability assay.

SF-126 = format: functional, cell-based, Homo sapiens; conditions: Homo sapiens, SF-126;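 note: growth inhibition of human SF126 cells, read out with a cell viability assay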
Description: SANGER: Inhibition of human SF126 cell growth in a cell viability assay.

SK-LMS-1 = format: functional, cell-based, Homo sapiens; conditions: Homo sapiens, SK-LMS-1;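 note: growth inhibition of human SK-LMS-1 cells, read out with a cell viability assay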
Description: SANGER: Inhibition of human SK-LMS-1 cell growth in a cell viability assay.

SK-MEL-1 = format: functional, cell-based; conditions: Homo sapiens;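 note: growth inhibition of human SK-MEL-1 cells, read out by a cell viability assay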
Description: SANGER: Inhibition of human SK-MEL-1 cell growth in a cell viability assay.

SNU-449 = format: functional, cell-based, Homo sapiens; conditions: Homo sapiens, SNU-449
Description: SANGER: Inhibition of human SNU-449 cell growth in a cell viability assay.

SW 962 = format: functional, cell-based, Homo sapiens; conditions: Homo sapiens, SW 962;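 note: growth inhibition of human SW962 cells, read out by a cell viability assay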
Description: SANGER: Inhibition of human SW962 cell growth in a cell viability assay.

A204 = format: functional, cell-based, Homo sapiens; conditions: Homo sapiens, A204;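 note: growth inhibition of human A204 cells, read out with a cell viability assay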
Description: SANGER: Inhibition of human A204 cell growth in a cell viability assay.

A-427 = format: functional, cell-based, Homo sapiens; conditions: Homo sapiens, A-427;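 note: growth inhibition of human A-427 cells, read out by a cell viability assay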
Description: SANGER: Inhibition of human A427 cell growth in a cell viability assay.

ABC-1 = format: functional, cell-based, Homo sapiens; conditions: Homo sapiens, ABC-1;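 note: growth inhibition of human ABC-1 cells, read out by a cell viability assay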
Description: SANGER: Inhibition of human ABC-1 cell growth in a cell viability assay.

BB65-RCC = format: functional, cell-based, Homo sapiens; conditions: Homo sapiens, BB65-RCC;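 note: growth inhibition of the cell line, measured with a cell viability assay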
Description: SANGER: Inhibition of human BB65-RCC cell growth in a cell viability assay.

BEN = format: functional, cell-based, Homo sapiens; conditions: Homo sapiens, BEN;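 note: growth inhibition of the BEN cell line, read out with a cell viability assay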
Description: SANGER: Inhibition of human BEN cell growth in a cell viability assay.

Becker = format: functional, cell-based, Homo sapiens; conditions: Homo sapiens, Becker;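 note: growth inhibition of Becker cells, read out with a cell viability assay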
Description: SANGER: Inhibition of human Becker cell growth in a cell viability assay.

C8166 = format: functional, cell-based; conditions: Homo sapiens;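 note: growth inhibition of human C8166 cells measured by a cell viability assay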
Description: SANGER: Inhibition of human C8166 cell growth in a cell viability assay.

TE-5 = format: functional, cell-based, Homo sapiens; conditions: Homo sapiens, TE-5;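 note: inhibition of cell growth, read out by a cell viability assay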
Description: SANGER: Inhibition of human TE-5 cell growth in a cell viability assay.

UO-31 = format: functional, cell-based; conditions: Homo sapiens;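 note: cell viability assay measuring inhibition of cell growth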
Description: SANGER: Inhibition of human U031 cell growth in a cell viability assay.

U-251 = format: functional, cell-based, Homo sapiens; conditions: Homo sapiens, U-251;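 note: growth inhibition of human U-251 cells, read out through a cell viability assay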
Description: SANGER: Inhibition of human U251 cell growth in a cell viability assay.

CHL-1 = format: functional, cell-based, Homo sapiens; conditions: Homo sapiens, CHL-1;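 note: cell growth inhibition, read out with a cell viability assay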
Description: SANGER: Inhibition of human CHL-1 cell growth in a cell viability assay.

COLO-684 = format: functional, cell-based; conditions: Homo sapiens
Description: SANGER: Inhibition of human COLO-684 cell growth in a cell viability assay.

Compound: COc1cc([C@@H]2c3cc4c(cc3[C@@H](O[C@@H]3O[C@@H]5CO[C@@H](C)O[C@H]5[C@H](O)[C@H]3O)[C@H]3COC(=O)[C@H]23)OCO4)cc(OC)c1O [ETOPOSIDE]
- IC50 (COR-L88): > 16000 nM
- IC50 (DU-145): 591 nM
- IC50 (G-402): 898 nM
- IC50 (GAMG): 2610 nM
- IC50 (HCC1395): > 16000 nM
- IC50 (HCC2218): > 16000 nM
- IC50 (HCE-T): > 16000 nM
- IC50 (HD-MY-Z): 8540 nM
- IC50 (HDLM-2): 13800 nM
- IC50 (HEL): 3900 nM
- IC50 (HSC-2): 706 nM
- IC50 (HT-1080): 109 nM
- IC50 (IA-LM): 3440 nM
- IC50 (K5): > 16000 nM
- IC50 (LS-1034): > 16000 nM
- IC50 (MDA-MB-175-VII): > 16000 nM
- IC50 (MOLT-16): 12500 nM
- IC50 (MOLT-4): 418 nM
- IC50 (Mo): > 16000 nM
- IC50 (NCI-H1155): 11000 nM
- IC50 (NCI-H1563): 7070 nM
- IC50 (NCI-H1755): > 16000 nM
- IC50 (NCI-H28): > 16000 nM
- IC50 (NCI-H720): > 16000 nM
- IC50 (OVCAR-5): 1540 nM
- IC50 (PA-1): 132 nM
- IC50 (PC-3): > 16000 nM
- IC50 (RERF-LC-MS): 2490 nM
- IC50 (RPMI-2650): 572 nM
- IC50 (RPMI-7951): 2290 nM
- IC50 (RPMI-8226): 14300 nM
- IC50 (RVH-421): > 16000 nM
- IC50 (SBC-5): 303 nM
- IC50 (SCC-4): 7200 nM
- IC50 (SCC-9): 850 nM
- IC50 (SF-126): 1440 nM
- IC50 (SK-LMS-1): 553 nM
- IC50 (SK-MEL-1): > 16000 nM
- IC50 (SNU-449): > 16000 nM
- IC50 (SW 962): > 16000 nM
- IC50 (A204): 232 nM
- IC50 (A-427): 103 nM
- IC50 (ABC-1): 405 nM
- IC50 (BB65-RCC): 979 nM
- IC50 (BEN): > 16000 nM
- IC50 (Becker): 11800 nM
- IC50 (C8166): 1680 nM
- IC50 (TE-5): 1180 nM
- IC50 (UO-31): 11300 nM
- IC50 (U-251): 501 nM
- IC50 (CHL-1): 883 nM
- IC50 (COLO-684): > 16000 nM

Compound: C=CCNC1=C2C[C@@H](C)C[C@H](OC)[C@H](O)[C@@H](C)/C=C(\C)[C@H](OC(N)=O)[C@@H](OC)/C=C\C=C(/C)C(=O)NC(=CC1=O)C2=O [TANESPIMYCIN]
- IC50 (COR-L88): 49.1 nM
- IC50 (DU-145): > 1000 nM
- IC50 (G-402): 47.9 nM
- IC50 (GAMG): 34.3 nM
- IC50 (HCC1395): > 1000 nM
- IC50 (HCC2218): 24.9 nM
- IC50 (HCE-T): 386 nM
- IC50 (HD-MY-Z): 109 nM
- IC50 (HDLM-2): > 1000 nM
- IC50 (HEL): > 1000 nM
- IC50 (HSC-2): 341 nM
- IC50 (HT-1080): 84.4 nM
- IC50 (IA-LM): > 1000 nM
- IC50 (K5): 244 nM
- IC50 (LS-1034): > 1000 nM
- IC50 (MDA-MB-175-VII): 33.5 nM
- IC50 (MOLT-16): > 1000 nM
- IC50 (MOLT-4): > 1000 nM
- IC50 (Mo): > 1000 nM
- IC50 (NCI-H1155): 262 nM
- IC50 (NCI-H1563): 949 nM
- IC50 (NCI-H1755): 63.4 nM
- IC50 (NCI-H28): 118 nM
- IC50 (NCI-H720): 25.5 nM
- IC50 (OVCAR-5): 34.8 nM
- IC50 (PA-1): 954 nM
- IC50 (PC-3): 515 nM
- IC50 (RERF-LC-MS): 746 nM
- IC50 (RPMI-2650): > 1000 nM
- IC50 (RPMI-7951): 7.17 nM
- IC50 (RPMI-8226): 663 nM
- IC50 (RVH-421): 191 nM
- IC50 (SBC-5): 201 nM
- IC50 (SCC-4): 178 nM
- IC50 (SCC-9): 167 nM
- IC50 (SF-126): > 1000 nM
- IC50 (SK-LMS-1): > 1000 nM
- IC50 (SK-MEL-1): > 1000 nM
- IC50 (SNU-449): > 1000 nM
- IC50 (SW 962): 39.5 nM
- IC50 (A204): 22.5 nM
- IC50 (A-427): 420 nM
- IC50 (ABC-1): > 1000 nM
- IC50 (BB65-RCC): 106 nM
- IC50 (BEN): > 1000 nM
- IC50 (Becker): 38.9 nM
- IC50 (C8166): > 1000 nM
- IC50 (TE-5): > 1000 nM
- IC50 (UO-31): 205 nM
- IC50 (U-251): 105 nM
- IC50 (CHL-1): 22.5 nM
- IC50 (COLO-684): 345 nM

Compound: C[C@]1(O)C[C@@H](c2nc(-c3ccc4ccc(-c5ccccc5)nc4c3)c3c(N)nccn32)C1 [LINSITINIB]
- IC50 (COR-L88): > 2560 nM
- IC50 (DU-145): > 2560 nM
- IC50 (G-402): > 2560 nM
- IC50 (GAMG): > 2560 nM
- IC50 (HCC1395): > 2560 nM
- IC50 (HCC2218): > 2560 nM
- IC50 (HCE-T): > 2560 nM
- IC50 (HD-MY-Z): > 2560 nM
- IC50 (HDLM-2): > 2560 nM
- IC50 (HEL): > 2560 nM
- IC50 (HSC-2): > 2560 nM
- IC50 (HT-1080): > 2560 nM
- IC50 (IA-LM): > 2560 nM
- IC50 (K5): > 2560 nM
- IC50 (LS-1034): 271 nM
- IC50 (MDA-MB-175-VII): > 2560 nM
- IC50 (MOLT-16): > 2560 nM
- IC50 (MOLT-4): > 2560 nM
- IC50 (Mo): > 2560 nM
- IC50 (NCI-H1155): > 2560 nM
- IC50 (NCI-H1563): > 2560 nM
- IC50 (NCI-H1755): > 2560 nM
- IC50 (NCI-H28): > 2560 nM
- IC50 (NCI-H720): > 2560 nM
- IC50 (OVCAR-5): > 2560 nM
- IC50 (PA-1): > 2560 nM
- IC50 (PC-3): > 2560 nM
- IC50 (RERF-LC-MS): > 2560 nM
- IC50 (RPMI-2650): > 2560 nM
- IC50 (RPMI-7951): > 2560 nM
- IC50 (RPMI-8226): > 2560 nM
- IC50 (RVH-421): > 2560 nM
- IC50 (SBC-5): > 2560 nM
- IC50 (SCC-4): > 2560 nM
- IC50 (SCC-9): > 2560 nM
- IC50 (SF-126): > 2560 nM
- IC50 (SK-LMS-1): > 2560 nM
- IC50 (SK-MEL-1): > 2560 nM
- IC50 (SNU-449): > 2560 nM
- IC50 (SW 962): > 2560 nM
- IC50 (A204): > 2560 nM
- IC50 (A-427): > 2560 nM
- IC50 (ABC-1): 904 nM
- IC50 (BB65-RCC): > 2560 nM
- IC50 (BEN): > 2560 nM
- IC50 (Becker): > 2560 nM
- IC50 (C8166): > 2560 nM
- IC50 (TE-5): > 2560 nM
- IC50 (UO-31): > 2560 nM
- IC50 (U-251): > 2560 nM
- IC50 (CHL-1): > 2560 nM
- IC50 (COLO-684): > 2560 nM
